Test results from patent US8163789B2, “Selective and dual-action p53/MDM2/MDM4 antagonists” (University of Pittsburgh—of the Commonwealth System of …, priority 2007, dated 2012).

Legend:
HCT116 cells = assay: GI50 against HCT116 cells in culture; format: cell-based; details: Homo sapiens, HCT-116, imidazole scaffold, Table 2
Description: A second approach for increasing affinity, entails introducing substituents in the 2-position of the imidazole ring to gain additional van der Waals interaction and even water solubility. A substituent in the 2-position would mimic the interactions of the Leu (FSDLWKLL) in p53, which contributes additional van der Waals interactions in addition to FWL. Optimization of compounds that belong to this family was carried out as shown in Scheme 1. Table 2 lists representative analogs that were synthesized with their GI50 values against HCT116 cells in culture. The chemistry to accomplish substitution at position-2 of the immidazole ring would involve generation of the carbanion using LDA and subsequent alkylation with iminium salts or other alkylating agents.

MDM2 = MDM2 (Homo sapiens, UniProt Q00987); assay: NMR-based binding assay, MDM2
MDM2, sequence (Q00987 whole entry, the tested form may be a part): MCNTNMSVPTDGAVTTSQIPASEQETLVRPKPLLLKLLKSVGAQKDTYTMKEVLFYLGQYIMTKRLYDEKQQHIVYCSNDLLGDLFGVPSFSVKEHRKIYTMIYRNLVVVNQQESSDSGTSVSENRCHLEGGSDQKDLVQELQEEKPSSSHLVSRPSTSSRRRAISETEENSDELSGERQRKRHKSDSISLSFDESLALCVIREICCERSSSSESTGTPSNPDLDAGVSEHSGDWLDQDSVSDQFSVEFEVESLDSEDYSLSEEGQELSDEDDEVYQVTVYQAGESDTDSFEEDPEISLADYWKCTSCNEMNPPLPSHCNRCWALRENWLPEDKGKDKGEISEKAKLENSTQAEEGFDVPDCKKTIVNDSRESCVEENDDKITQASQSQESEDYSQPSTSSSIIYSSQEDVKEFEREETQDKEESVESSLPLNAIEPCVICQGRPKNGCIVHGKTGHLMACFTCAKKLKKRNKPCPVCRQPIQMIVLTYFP
Description: (§1) In one of its aspects, the present invention provides a method for generating and screening virtual libraries based on 40 different MCRs having the indole fragment. The inventive method comprises docking individual molecules from the virtual library into a high resolution structure of the MDM2 protein. Docking is carried out by maintaining the same positional constraints on the indole ring of the docked molecule to those for the indole side chain in the high resolution X-ray structure of MDM2-p53 peptide. The compounds identified from docking experiments as potential inhibitors of MDM2-p53 interaction are then synthesized and tested for the inhibitory activity using an NMR-based binding assay. […] A similar strategy was used to identify and select compounds that could potentially be used as inhibitors for disrupting MDM4-p53 interaction.
Such an NMR-based screen has many advantages. For example, this screening method allows for the rapid determination of an approximate KA for the small molecule inhibitors, with the possibility of obtaining a more accurate KA value at a later time by titrating the p53-MDM2 complex using increasing concentrations of the inhibitor of interest. A second advantage of using this technique is that it allows identification of the binding site of the small molecule in the target protein by investigating the chemical shift perturbations that occur on binding. This information can then be used to further refine the chemical scaffold with an aim towards improving the affinity of the molecule for its target. Finally, NMR-based screening yields valuable information about promiscuous inhibitors which act as false positives by precipitating the target protein through hydrophobic effects. This information is not available when classical screening approaches such as fluorescence polarization or ELISA type assays are used for screening.
(§2) The compounds identified using MCR were then screened for the ability to bind MDM2 or MDM4 (KA) (primary assay). The molecules identified as binders of MDM2 or MDM4 by the primary assay are subsequently tested for their ability to disrupt the MDM2/p53-peptide complex (KD) in a secondary assay. Based on the results from the primary and secondary assays, further downstream assays involving screening using various cell lines (PC3, A549, MDAMB231) and determination of the growth inhibition constants may be performed for a select sub-set of molecules. Western blot analysis of certain compounds is performed to determine p53, MDM2, and p21 content.

MDM4 = target: T1, MDM4 (Homo sapiens, UniProt O15151); assay: NMR-based binding assay, MDM4; details: imidazolidine scaffold, Table 3
T1 sequence (O15151 1-490): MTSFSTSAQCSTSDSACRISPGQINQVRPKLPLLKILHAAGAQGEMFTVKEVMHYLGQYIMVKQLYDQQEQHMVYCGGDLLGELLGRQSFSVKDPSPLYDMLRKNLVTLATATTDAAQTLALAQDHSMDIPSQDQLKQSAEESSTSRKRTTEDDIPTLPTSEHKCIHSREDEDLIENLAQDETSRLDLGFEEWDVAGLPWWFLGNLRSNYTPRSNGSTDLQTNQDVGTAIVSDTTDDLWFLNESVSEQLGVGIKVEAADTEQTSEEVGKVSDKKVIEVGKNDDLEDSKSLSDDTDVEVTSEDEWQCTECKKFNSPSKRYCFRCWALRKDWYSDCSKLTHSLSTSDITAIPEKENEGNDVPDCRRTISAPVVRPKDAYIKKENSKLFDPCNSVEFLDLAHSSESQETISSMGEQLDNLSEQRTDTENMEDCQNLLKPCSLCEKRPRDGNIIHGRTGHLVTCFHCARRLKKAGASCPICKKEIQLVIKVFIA
Description: as §1
as §2, with “Western blot analysis of certain compounds is performed to determine p53, MDM2, and p21 content.” left out

[1] = imidazolidine scaffold, Table 3

Row | SMILES | GI50 (HCT116 cells) | Ki (MDM2; [1]) | other results
1 | Clc1ccc(-c2ncn(CC3CC3)c2-c2c[nH]c3ccccc23)cc1 | ~35 µM | – | –
2 | Clc1cccc(Cc2ncn(CC3CC3)c2-c2c[nH]c3ccccc23)c1 | ~25 µM | – | –
3 | Clc1ccc(-c2ncn(CC3CC3)c2-c2ccc(Cl)cc2)cc1 | ~10 µM | – | Ki (MDM2; imidazole scaffold, Table 2): ~50 µM
4 | Clc1ccc(-c2ncn(CC3CC3)c2-c2cc3ccc(Cl)cc3[nH]2)cc1 | ~40 µM | – | –
5 | Clc1ccc(-c2ncn(CC3CC3)c2-c2c[nH]c3cc(Cl)ccc23)cc1 | ~40 µM | – | –
6 | CC(c1ccc(Cl)cc1)n1cnc(-c2ccc(Cl)cc2)c1-c1cc2ccc(Cl)cc2[nH]1 (stereo not shown) | ~30 µM | – | –
7 | C[C@@H](c1ccc(Cl)cc1)n1cnc(-c2ccc(Cl)cc2)c1-c1cc2ccc(Cl)cc2[nH]1 | ~20 µM | – | –
8 | C[C@H](c1ccc(Cl)cc1)n1cnc(-c2ccc(Cl)cc2)c1-c1cc2ccc(Cl)cc2[nH]1 | ~20 µM | – | –
9 | CC(c1cccc2ccccc12)n1cnc(-c2ccc(Cl)cc2)c1-c1cc2ccc(Cl)cc2[nH]1 (stereo not shown) | ~5 µM | – | –
10 | Clc1ccc2c(-c3c(-c4ccc5c(c4)OCO5)ncn3CC3CC3)c[nH]c2c1 | ~1 µM | – | –
11 | Clc1ccc2c(-c3c(-c4ccc(Cl)c(Cl)c4)ncn3CC3CC3)c[nH]c2c1 | ~10 µM | – | –
12 | Fc1cc(Cl)ccc1-c1c(-c2ccc(Cl)cc2)ncn1Cc1ccccc1 | ~20 µM | – | –
13 | CC(C)(C)OC(=O)n1cc(-c2c(-c3ccc(Cl)cc3)ncn2CC2CC2)c2ccc(Cl)cc21 | ~50 µM | – | –
14 | CN(C)Cc1nc(-c2ccc(Cl)cc2)c(-c2ccc(Cl)cc2)n1CC1CC1 | ~20 µM | – | –
15 | COC(=O)C1(c2ccccc2)N=CN(CC(C)C)C1c1ccc(Cl)cc1 (stereo not shown) | – | ~10 µM | –
16 | COC(=O)C1(c2ccccc2)N=CN(C2CCCCC2)C1c1ccc(Cl)cc1 (stereo not shown) | – | ~20 µM | –
17 | COC(=O)C1(c2ccc(Cl)cc2)N=CN(CC2CC2)C1c1cc2ccc(Cl)cc2[nH]1 (stereo not shown) | – | ~50 µM | –
18 | COC(=O)C1(CCSC)N=CN(CC2CC2)C1c1ccc(Br)cc1 (stereo not shown) | – | ~20 µM | –
19 | COC(=O)C1(C)N=CN(CC2CC2)C1c1c[nH]c2ccccc12 (stereo not shown) | – | ~50 µM | –
20 | COC(=O)C1(c2ccccc2)N=CN(CC2CC2)C1c1c[nH]c2ccccc12 (stereo not shown) | – | ~30 µM | –
21 | COC(=O)C1(c2ccccc2)N=CN(CC2CC2)C1c1ccc(Br)cc1 (stereo not shown) | – | ~6 µM | –

Row | SMILES | GI50 (HCT116 cells) | Ki (MDM2; [1]) | other results
22 | COC(=O)C1(c2ccccc2)N=CN(CC2CCCNC2)C1c1ccc(Cl)cc1 (stereo not shown) | – | ~20 µM | –
23 | COC(=O)C1(c2ccccc2)N=CN(Cc2cccc(N)c2)C1c1ccc(Cl)cc1 (stereo not shown) | – | ~5 µM | Ki (MDM4): ~5 µM
24 | COC(=O)C1(CC(C)C)N=CN(CC2CC2)C1c1ccc(Cl)cc1 (stereo not shown) | – | ~1 µM | –
25 | COC(=O)C1(C)N=CN(CC2CC2)C1c1ccc(Cl)cc1 (stereo not shown) | – | ~2 µM | –
26 | O=C(O)C1(c2ccccc2)N=CN(CC2CC2)C1c1ccc(Cl)cc1 (stereo not shown) | – | ~50 µM | –
27 | COC(=O)C1(c2ccccc2)N=CN(C2CCNCC2)C1c1ccc(Cl)cc1 (stereo not shown) | – | ~50 µM | –
28 | COC(=O)C1(c2ccccc2)N=CN(C(C)c2ccc(Cl)cc2)C1c1ccc(Cl)cc1 (stereo not shown) | – | ~20 µM | –
29 | COC(=O)C1(c2ccccc2)N=CN(c2ccc(Cl)cc2)C1c1ccc(Cl)cc1 (stereo not shown) | – | ~5 µM | –
30 | O=C(NCCN1CCOCC1)C1(c2ccccc2)N=CN(CC2CC2)C1c1ccc(Cl)cc1 (stereo not shown) | – | 1 µM | –
31 | O=C(NCCCN1CCOCC1)C1(c2ccccc2)N=CN(CC2CC2)C1c1ccc(Cl)cc1 (stereo not shown) | – | 1 µM | –
32 | COC(=O)C1(c2ccccc2)N=CN(CC2CC2)C1c1cc2ccc(Cl)cc2[nH]1 (stereo not shown) | – | ~40 µM | –
33 | COC(=O)C1(C)N=CN(CC2CC2)C1c1cc2ccc(Cl)cc2[nH]1 (stereo not shown) | – | ~50 µM | –
34 | COC(=O)C1(CCSC)N=CN(CC2CC2)C1c1ccc(Cl)cc1 (stereo not shown) | – | ~10 µM | –
35 | COC(=O)C1(c2ccccc2)N=CN(Cc2cccnc2)C1c1ccc(Cl)cc1 (stereo not shown) | – | ~5 µM | –
36 | COC(=O)C12N=CN(CC3CC3)C1c1ccc(Cl)cc1C2C (stereo not shown) | – | ~2 µM | –
37 | O=C(N1CCNCC1)C1(c2ccccc2)N=CN(CC2CC2)C1c1ccc(Cl)cc1 (stereo not shown) | – | ~1 µM | –
38 | COC(=O)C1(c2ccc(Cl)cc2)N=CN(CC2CC2)C1c1ccc(Cl)cc1 (stereo not shown) [drawing 44] | – | ~5 µM | –
39 | COC(=O)C1(c2ccccc2)N=CN(CC2CC2)C1c1ccc(Cl)cc1F (stereo not shown) [drawing 45] | – | ~2 µM | –
40 | COC(=O)C1(c2ccccc2)N=CN(CC2CC2)C1c1ccc(Cl)cc1F (stereo not shown) [drawing 58] | – | ~2 µM | –
41 | COC(=O)C1(c2ccc(Cl)cc2)N=CN(CC2CC2)C1c1ccc(Cl)cc1 (stereo not shown) [drawing 67] | – | ~40 µM | –
